In the CombiSolv-Exp solvation set (Vermeire and Green 2021):

Assay: solvent given as SMILES

ClCCCl
Settings	solvation free energy, 298 K [kcal/mol]
in Brc1cccc2ccccc12	-4.18
in C1CCOC1	-5.01
in C1COCCO1	-4.98
in CC(=O)CC(C)C	-4.68
in CC(=O)N(C)C	-5.01
in CC(=O)OCc1ccccc1	-4.59
in CC(C)OC(C)C	-3.88
in CCC(C)=O	-4.79
in CCCCCC	-3.75
in CCCCCCC	-3.7
in CCCCCCCC	-3.7
in CCCCCCCCCCCCCC	-3.49
in CCCCCCCCCCCCCCCC	-3.52
in CCCCCCCCN(CCCCCCCC)CCCCCCCC	-3.6
in CCCCCCCCO	-3.78
in CCCCCN(CCCCC)CCCCC	-3.76
in CCCCCl	-4.42
in CCCCN(C=O)CCCC	-4.62
in CCCCN(CCCC)CCCC	-3.65
in CCCCO	-3.98
in CCCCOCCCC	-4.16
in CCO	-4.03
in CCOC(C)=O	-4.72
in CCOCC	-4.45
in CNC(C)=O	-4.45
in COC(=O)OC	-4.73
in COC(C)(C)C	-4.35
in Cc1ccc(C)cc1	-4.41
in Cc1cccc(C)c1	-4.45
in Cc1ccccc1C	-4.42
in ClC(Cl)(Cl)Cl	-4.3
in ClC(Cl)Cl	-4.69
in O	-1.79
in [2H]O[2H]	-1.89
in c1ccc2ncccc2c1	-4.54
in c1ccccc1	-4.68

CCCCOC(=O)c1ccccc1C(=O)OCc1ccccc1
Settings	solvation free energy, 298 K [kcal/mol]
in O	-9.55

CN(C)C(=O)Nc1ccc(Cl)c(Cl)c1
Settings	solvation free energy, 298 K [kcal/mol]
in CC(C)CCO	-14.6
in CCCC(C)O	-14.5
in CCCCCl	-13.3
in CCCCOC(C)=O	-14.5
in CCCCOCCCC	-12.6
in CCOC(C)=O	-14.6
in COC(C)=O	-14.6
in ClC(Cl)(Cl)Cl	-12.4
in ClC(Cl)Cl	-14.5
in ClCCCl	-14.3
in ClCCl	-14.2
in Clc1ccccc1	-13.6
in O	-10.9

Nc1ccc(-c2ccc(N)cc2)cc1
Settings	solvation free energy, 298 K [kcal/mol]
in Cc1ccccc1C	-15.7

[2H]O[2H]
Settings	solvation free energy, 298 K [kcal/mol]
in C1CCCCC1	-0.54
in CCO	-5.24
in ClC(Cl)(Cl)Cl	-1.14
in S=C=S	-0.75

CC(C)=CC(C)(C)C
Settings	solvation free energy, 298 K [kcal/mol]
in CCC(C)=O	-4.39
in O	1.84

CCCC=O
Settings	solvation free energy, 298 K [kcal/mol]
in C1CCOC1	-4.42
in C=CCCCC	-3.65
in C=CCCCCCCCCCCCCCC	-3.15
in CC(C)CC(C)(C)C	-3.45
in CC(C)CCCC(C)CCCC(C)CCCCC(C)CCCC(C)CCCC(C)C	-3.09
in CCCCCCCC	-3.23
in CCCCCCCCCCCCCCCC	-3.18
in CCCCCCCCO	-4.64
in CCCCCO	-3.7
in CCOC(C)=O	-4.33
in CN1CCCC1=O	-4.16
in CO	-4.34
in NC=O	-3.52
in O	-3.12
in O=CN1CCOCC1	-3.94
in [2H]O[2H]	-3.11

CCCCCCCCCCCCCCCCCCCCCCCCC
Settings	solvation free energy, 298 K [kcal/mol]
in CC(=O)N(C)C	-17.1
in CC(C)(C)O	-15.3
in CN(C)C=O	-17.1
in COC(C)(C)C	-17.1
in O	5.39

FC(F)(F)C(F)(F)C(F)(F)C(F)(F)C(F)(F)C(F)(F)C(F)(F)F
Settings	solvation free energy, 298 K [kcal/mol]
in CCCCCCC	-2.35
in CCCCO	-1.29
in CCCO	-1.24
in S=C=S	-0.45

O=C(O)c1cccc(C(=O)O)c1
Settings	solvation free energy, 298 K [kcal/mol]
in CC(C)O	-13.8
in CCC(C)O	-13.3
in CCCCCCO	-13.2
in CCCCO	-13.5
in CCCO	-13.6
in CCCOC(C)=O	-12.5
in CN1CCCC1=O	-15.5
in CO	-14.1
in O	-11.3

C1CNC1
Settings	solvation free energy, 298 K [kcal/mol]
in O	-5.56

CC(=O)c1c(C)[nH]n(-c2ccccc2)c1=O
Settings	solvation free energy, 298 K [kcal/mol]
in O	-9.89

CC(C)N
Settings	solvation free energy, 298 K [kcal/mol]
in CCCCCC	-2.78

Sc1ccccc1
Settings	solvation free energy, 298 K [kcal/mol]
in O	-2.55

CC1CCC(C(C)C)C(O)C1 (centres undefined)
Settings	solvation free energy, 298 K [kcal/mol]
in O	-3.2

CCCCCBr
Settings	solvation free energy, 298 K [kcal/mol]
in O	-0.1

Nc1ccc([N+](=O)[O-])cc1Cl
Settings	solvation free energy, 298 K [kcal/mol]
in O	-8.74

CCCCCCCCCCCCCCCCCCCCCCCC
Settings	solvation free energy, 298 K [kcal/mol]
in CC(=O)N(C)C	-16.4
in CC(C)(C)O	-14.6
in CC(C)O	-13.6
in CCC(C)=O	-14.8
in CCCCCCCCCCO	-15.2
in CCCCCCO	-14.2
in CCCCCO	-14.1
in CCCCO	-13.9
in CCCCOC(C)=O	-15.4
in CCCO	-13.8
in CCO	-13.4
in CN(C)C=O	-16.4
in CO	-12.3
in COC(C)(C)C	-16.3
in ClCCl	-16
in O	5.24
